Source: ChEMBL document CHEMBL5620382, “Fluoroindole chalcone analogues targeting the colchicine binding site of tubulin for colorectal oncotherapy” (Eur J Med Chem, 2023)
The source made the active and inactive calls. The calls are words filed in the database; no cut-off is given here.

Experiments:
HCT-116 [1] = assay: Induction of endoplasmic reticulum (ER) stress in human HCT-116 cells assessed as increase in ROS level at 1.25 nM measured after 24 hrs by fluorescent analysis (reference value: 12%); format: functional
HCT-116 [2] = assay: Induction of endoplasmic reticulum (ER) stress in human HCT-116 cells assessed as increase p-IRE1alpha expression at 10 to 20 nM measured after 24 hrs by Western blot analysis; format: functional, cell-based; conditions: dose 10-20 nM
HCT-116 [3] = assay: Induction of mitochondrial dysfunction in human HCT-116 cells assessed as change in mitochondrial membrane potential (MMP) by JC-1 fluorescence assay; format: functional, cell-based; conditions: dose 1.25-20 µM
NCM460 = assay: Antiproliferative activity against human NCM460 cells assessed as inhibition of proliferation at 2.5 to 20 nM measured after 24 hrs by CCK-8 assay; format: toxicity, cell-based; conditions: ncm460, 24 h, 0.02 µM, dose 2.5-20 nM
HCT-116 [4] = assay: Induction of mitochondrial dysfunction in human HCT-116 cells assessed as reduction in oxygen consumption rate (OCR) incubated for 24 hrs; format: functional, cell-based; conditions: dose 1.25-20 µM
HCT-116 [5] = assay: Induction of mitochondrial damage in human HCT-116 cells at 10 to 20 nM measured after 24 hrs by transmission electron microscope (TEM) analysis; format: functional, cell-based; conditions: dose 10-20 nM
HCT-116 [6] = assay: Anti-tumor activity against human HCT116 cells xenografted in BALB/c mouse assessed as inhibition of tumor growth at 1.5 to 3 mg/kg, ip thrice a week for three weeks; format: functional, organism-based; conditions: dose 1.5-3 mg/kg, time 3.0 weeks
CT26 [7] = assay: Induction of endoplasmic reticulum (ER) stress in mouse CT26 cells assessed as increase in ROS level at 5 nM measured after 24 hrs by fluorescent analysis (reference value: 14%); format: functional
[8] = Toxicity in BALB/c mouse xenografted with human HCT-116 cells assessed as organ toxicity at 3 mg/kg, ip thrice a week for three weeks by […]; format: organism-based; conditions: in vivo, 504 h, time 3 weeks
CT26 [9] = assay: Induction of endoplasmic reticulum (ER) stress in mouse CT26 cells assessed as increase in ROS level at 40 nM measured after 24 hrs by fluorescent analysis (reference value: 14%); format: functional
CT26 [10] = assay: Antiproliferative activity against mouse CT26 cells assessed as dead cells at 2.5 to 40 nM measured after 24 hrs by Calcein-AM/PI staining based immunofluorescence analysis; format: functional, cell-based; conditions: dose 2.5-40 nM
CT26 [11] = assay: Induction of endoplasmic reticulum (ER) stress in mouse CT26 cells assessed as increase in ROS level at 20 nM measured after 24 hrs by fluorescent analysis (reference value: 14%); format: functional
CT26 [12] = assay: Induction of mitochondrial dysfunction in mouse CT26 cells assessed as change in mitochondrial membrane potential (MMP) by JC-1 fluorescence assay; format: functional, cell-based; conditions: dose 2.5-40 µM
[13] = Toxicity in C57BL/6-APCmin/+ mouse model assessed as change in body weight at 3 mg/kg, ip treated for 45 days; format: organism-based; conditions: in vivo, 1080 h, time 45 day
[14] = Toxicity in BALB/c mouse xenografted with human HCT116 cells assessed as change in body weight at 1.5 to 3 mg/kg, ip thrice a week for three weeks; format: organism-based, HCT-116; conditions: in vivo, 504 h, dose 1.5-3 mg/kg, time 3 weeks
HCT-116 [15] = assay: Cytotoxicity against human HCT-116 cells assessed as growth inhibition at 1.25 to 20 uM measured after 24 hrs in presence of ROS scavenger NAC by CCK-8 assay; format: functional, cell-based; conditions: dose 1.25-20 µM
[16] = Toxicity in BALB/c mouse xenografted with human HCT116 cells assessed as side effects at 1.5 to 3 mg/kg, ip thrice a week for three weeks; format: organism-based, HCT-116; conditions: in vivo, 504 h, dose 1.5-3 mg/kg, time 3 weeks
CT26 [17] = assay: Induction of endoplasmic reticulum (ER) stress in mouse CT26 cells assessed as rough long-linear and irregularly dilated with locally verified expansion at 10 to 20 nM measured after 24 hrs by transmission electron microscope (TEM) analysis; format: functional, cell-based; conditions: dose 10-20 nM
CT26 [18] = assay: Induction of endoplasmic reticulum (ER) stress in mouse CT26 cells assessed as increase p-IRE1alpha expression at 10 to 40 nM measured after 24 hrs by Western blot analysis; format: functional, cell-based; conditions: dose 10-40 nM
CT26 [19] = assay: Antiproliferative activity against mouse CT26 cells assessed as inhibition of proliferation measured after 24 hrs by CCK-8 assay; format: functional, cell-based; conditions: CT26, 24 h
HCT-116 [20] = assay: Induction of endoplasmic reticulum (ER) stress in human HCT-116 cells assessed as increase p-PERK expression at 10 to 20 nM measured after 24 hrs by Western blot analysis; format: functional, cell-based; conditions: dose 10-20 nM
Tubulin (Homo sapiens) = Tubulin (Homo sapiens) (UniProt P68371+Q9H4B7+P0DPH7+P68366+Q13509+Q71U36+P04350+Q3ZCM7+P07437+P68363+Q9BQE3+Q6PEY2+Q13885+Q9BVA1+Q9BUF5); assay: Stabilization of microtubule in human HCT-116 cells at […] incubated for 1 hrs by CETSA; format: cell-based
HCT-116 [21] = assay: Anti-tumor activity against human HCT-116 cells xenografted in BALB/c mouse assessed as increase in necrotic area in tumor section at 3 mg/kg, ip thrice a week for three weeks by H and E staining based assay; format: functional, organism-based; conditions: time 3.0 weeks
[22] = Toxicity in C57B/6-APCmin/+ mouse model assessed as organ toxicity at 3 mg/kg, ip treated for 45 days by H and E staining; format: organism-based; conditions: in vivo, 1080 h, time 45 day
HCT-116 [23] = assay: Induction of endoplasmic reticulum (ER) stress in human HCT-116 cells assessed as upregulation of cleaved-caspase 3 at 10 to 20 nM measured after 24 hrs by Western blot analysis; format: functional, cell-based; conditions: dose 10-20 nM
HCT-116 [24] = assay: Induction of endoplasmic reticulum (ER) stress in human HCT-116 cells assessed as increase in ROS level at 2.5 nM measured after 24 hrs by fluorescent analysis (reference value: 12%); format: functional
CT26 [25] = assay: Induction of endoplasmic reticulum (ER) stress in mouse CT26 cells assessed as increase in ROS level at 10 nM measured after 24 hrs by fluorescent analysis (reference value: 14%); format: functional

COc1cc(C(=O)/C(C)=C/c2c[nH]c3cc(F)ccc23)cc(OC)c1OC
Activity (HCT-116 [1]): 20.1% | Activity (HCT-116 [2]): Active | Activity (HCT-116 [3]): Dose-Dependent Effect | Activity (NCM460): Non-Toxic | Activity (HCT-116 [4]): Dose-Dependent Effect | Activity (HCT-116 [5]): Active | Activity (HCT-116 [6]): Active | Activity (CT26 [7]): 15% | Activity [8]: Non-Toxic | Activity (CT26 [9]): 59.1% | Activity (CT26 [10]): Active | Activity (CT26 [11]): 60.1% | Activity (CT26 [12]): Dose-Dependent Effect | Activity [13]: Non-Toxic | Activity [14]: Non-Toxic | Activity (HCT-116 [15]): inactive | Activity [16]: Non-Toxic | Activity (CT26 [17]): Active | Activity (CT26 [18]): Active | IC50 (CT26 [19]): 18.7 nM | Activity (HCT-116 [20]): Active | Activity (Tubulin (Homo sapiens)): inactive | Activity (HCT-116 [21]): Active | Activity [22]: Non-Toxic | Activity (HCT-116 [23]): Active | Activity (HCT-116 [24]): 35.6% | Activity (CT26 [25]): 24.4%
